Experimental data reported in patent publication US20130131161A1, “METHODS AND COMPOSITIONS FOR CARDIOVASCULAR DISEASES AND CONDITIONS” (priority 2009, published 2013).
“And” between values parts separate entries of the source, which are not always exact repeats. Identical values can stand only once.

System: Human umbilical vein endothelial cells (HUVECs)
Assay: eNOS activity analysis: NO, ONOO− and NO/ONOO− release from HUVECs of 50 genotyped donors in response to LA-419 (Example 2)
Format: cell-based
Method: Concurrent measurements of NO and ONOO^− were carried out with tandem electrochemical nanosensors combined into one working unit with a total diameter of 200-500 nm (FIG. 1). Their design was based on previously developed and well-characterized chemically modified carbon-fiber technology (Malinski and Taha, 1992; Lvovich and Scheeline, 1997). Each of the nanosensors was made by depositing a sensing material on the tip of a carbon fiber (length 4-5 μm, diameter 0.2-0.5 μm). The fibers were sealed with nonconductive epoxy and electrically connected to copper wires with conductive silver epoxy. A conductive film of polymeric nickel (II) tetrakis(3-methoxy-4-hydroxyphenyl)porphyrin for the NO-sensor and polymeric film of Mn (III) [2.2]paracyclophanylporphyrin was used for the ONOO^−-sensor.
A module of NO/ONOO^− nanosensors (diameter 1-2 μm) with a platinum wire (0.1 mm) counter electrode and saturated calomel reference electrode (SCE) were applied. Differential pulse voltammetry (DPV) and amperometry were performed with a computer-based Gamry VFP600 multichannel potentiostat. DPV was used to measure the basal NO and ONOO^− concentrations, and amperometry was used to measure changes in NO and ONOO^− concentrations from its basal level with time. The DPV current at the peak potential characteristic for NO oxidation (0.65 V) and ONOO^− reduction (−0.45 V) was directly proportional to the local concentrations of these compounds in the immediate vicinity of the sensor. Linear calibration curves (current vs. concentration) were constructed for each sensor from 10 nM to 3 μM before and after measurements with aliquots of NO and ONOO^− standard solutions, respectively. The detection limit of the sensors was 1.0 nM.
The quantification of each analyte (concentration in nM) was performed using a maximum current from amperograms and standard calibration curves. A reproducibility of measurements with nanosensors is relatively high (between 5-12%). […] The sensors were slowly raised 5±2 μm from the surface of a single endothelial cell. The eNOS agonist, calcium ionophore A23187 (CaI) as well as the different drugs were then added to the surrounding media at the cell surface with a nanoinjector that was also positioned by a computer controlled-micromanipulator.
This example describes the genotype-specific response of the three major eNOS variants to 1 μM and 5 μM concentrations of LA-419. The three major genetic polymorphisms studied were the Glu298Asp variant (E298D or 894G→T) in exon 7 of […], the −786T→C variant in the promoter region, and the intron 4 polymorphism (VNTR). All of these variants have possible effects on the cardiovascular system and endothelial dysfunction. For this study, human umbilical vein endothelial cells (HUVECs) from 50 donors between 18 and 32 years of age were used.
For the analysis several analysis techniques were employed. First, the effect of genotype on NO and ONOO^− release was explored within the different concentrations of LA-419 (control, 1 μM, 5 μM), calculated as the average peak release (nmols/L) of NO, ONOO^−, and NO/ONOO^−. The effect of genotype on the net increase in NO, ONOO^−, and NO/ONOO^− for LA-419 (1 μM and 5 μM) as compared to control was also measured. In addition, an analysis was done on the effect of genotype on the % change in NO, ONOO^−, and NO/ONOO^− production for LA-419 (1 μM and 5 μM), calculated as:
% Change=[(avg. LA-419−avg. control)/(avg. control)]*100
Finally, an evaluation was undertaken concerning the effect of genotype on the production of NO, ONOO^−, and NO/ONOO^− as the fold difference of control for LA-419 (1 μM and 5 μM), calculated as:
Fold Difference=(avg. LA-419)/(avg. control)
Within each calculation technique the results were compared for statistical significance using a non-parametric ANOVA Kruskal-Wallace test or a non-parametric Mann-Whitney U test. Statistical significance was set at a p-value <0.05 in a two-tailed distribution. […]

[1] = (LA-419 1 μM)/(control), T-786C T/C & C/C, n=27
[2] = (LA-419 1 μM)/(control), T-786C T/C, n=23
[3] = (LA-419 1 μM)/(control), T-786C T/T & T/C, n=45
[4] = (LA-419 1 μM)/(control), T-786C T/T, n=22
[5] = (LA-419 5 μM)/(control), Combination of all G894T + T-786C genotypes but G/G + T/T, n=31
[6] = (LA-419 5 μM)/(control), Combination of all G894T + T-786C genotypes but T/T + C/C, n=46
[7] = (LA-419 5 μM)/(control), G894T + T-786C G/G + T/C, n=8
[8] = (LA-419 5 μM)/(control), G894T + T-786C G/G + T/T, n=18
[9] = (LA-419 5 μM)/(control), G894T + T-786C G/T + C/C, n=1
[10] = (LA-419 5 μM)/(control), G894T + T-786C G/T + T/C, n=13
[11] = (LA-419 5 μM)/(control), G894T + T-786C G/T + T/T, n=4
[12] = (LA-419 5 μM)/(control), G894T + T-786C T/T + C/C, n=1
[13] = (LA-419 5 μM)/(control), G894T + T-786C T/T + C/C, n=3
[14] = (LA-419 5 μM)/(control), G894T + T-786C T/T + T/C, n=2
[15] = (LA-419 5 μM)/(control), G894T G/G & G/T, n=44
[16] = (LA-419 5 μM)/(control), G894T G/G, n=26
[17] = (LA-419 5 μM)/(control), G894T G/T & T/T, n=23
[18] = (LA-419 5 μM)/(control), G894T G/T, n=18
[19] = (LA-419 5 μM)/(control), G894T T/T, n=5
[20] = (LA-419 5 μM)/(control), Intron 4 a/a, n=1
[21] = (LA-419 5 μM)/(control), Intron 4 a/a, n=3
[22] = (LA-419 5 μM)/(control), Intron 4 b/a, a/a, c/c, n=14
[23] = (LA-419 5 μM)/(control), Intron 4 b/a, n=10
[24] = (LA-419 5 μM)/(control), Intron 4 b/b, b/a, c/c, n=42
[25] = (LA-419 5 μM)/(control), Intron 4 b/b, n=31
[26] = (LA-419 5 μM)/(control), Intron 4 c/c, n=1
[27] = (LA-419 5 μM)/(control), T-786C C/C, n=1

## CC(=O)SC1COC2C(O[N+](=O)[O-])COC12 (stereo not drawn) [LA-419, S-(6-Nitro-oxi-hexahydro-furo[3,2-b]furan-3-1-il)thioacetate]
(LA-419 1 μM)/(control), T-786C C/C, n=4
  Fold difference ONOO− (mean ± sd): 1.11 (0.44)
[1]
  Fold difference NO (mean ± sd): 1.15 (0.28)
  Fold difference NO/ONOO− (mean ± sd): 1.45 (0.75)
  Fold difference ONOO− (mean ± sd): 0.91 (0.31)
[2]
  Fold difference NO (mean ± sd): 1.18 (0.30)
  Fold difference NO/ONOO− (mean ± sd): 1.53 (0.78)
  Fold difference ONOO− (mean ± sd): 0.88 (0.28)
[3]
  Fold difference NO (mean ± sd): 1.14 (0.25)
  Fold difference NO/ONOO− (mean ± sd): 1.39 (0.67)
  Fold difference ONOO− (mean ± sd): 0.91 (0.25)
[4]
  Fold difference NO (mean ± sd): 1.09 (0.18)
  Fold difference NO/ONOO− (mean ± sd): 1.25 (0.52)
  Fold difference ONOO− (mean ± sd): 0.95 (0.22)
[5]
  Fold difference NO (mean ± sd): 1.13 (0.06)
  Fold difference NO/ONOO− (mean ± sd): 1.40 (0.14)
  Fold difference ONOO− (mean ± sd): 0.81 (0.07)
[6]
  Fold difference NO (mean ± sd): 1.14 (0.06)
  Fold difference NO/ONOO− (mean ± sd): 1.44 (0.16)
  Fold difference ONOO− (mean ± sd): 0.81 (0.07)
[7]
  Fold difference NO (mean ± sd): 1.14 (0.07)
  Fold difference NO/ONOO− (mean ± sd): 1.44 (0.18)
  Fold difference ONOO− (mean ± sd): 0.80 (0.07)
[8]
  Fold difference NO (mean ± sd): 1.17 (0.06)
  Fold difference NO/ONOO− (mean ± sd): 1.50 (0.18)
  Fold difference ONOO− (mean ± sd): 0.79 (0.08) and 0.79 (0.06)
[9]
  Fold difference NO (mean ± sd): 1.12 (0)
  Fold difference NO/ONOO− (mean ± sd): 1.32 (0)
  Fold difference ONOO− (mean ± sd): 0.85 (0)
[10]
  Fold difference NO (mean ± sd): 1.13 (0.07)
  Fold difference NO/ONOO− (mean ± sd): 1.37 (0.11)
  Fold difference ONOO− (mean ± sd): 0.83 (0.04)
[11]
  Fold difference NO (mean ± sd): 1.14 (0.05)
  Fold difference NO/ONOO− (mean ± sd): 1.47 (0.19)
  Fold difference ONOO− (mean ± sd): 0.79 (0.12)
[12]
  Fold difference NO (mean ± sd): 1.08 (0)
  Fold difference NO/ONOO− (mean ± sd): 1.59 (0)
  Fold difference ONOO− (mean ± sd): 0.67 (0)
[13]
  Fold difference NO (mean ± sd): 1.12 (0.07)
  Fold difference NO/ONOO− (mean ± sd): 1.46 (0.14)
  Fold difference ONOO− (mean ± sd): 0.77 (0.08)
[14]
  Fold difference NO (mean ± sd): 1.12 (0.09)
  Fold difference NO/ONOO− (mean ± sd): 1.29 (0.01)
  Fold difference ONOO− (mean ± sd): 0.87 (0.06)
[15]
  Fold difference NO (mean ± sd): 1.15 (0.06)
  Fold difference NO/ONOO− (mean ± sd): 1.44 (0.16)
  Fold difference ONOO− (mean ± sd): 0.80 (0.07)
[16]
  Fold difference NO (mean ± sd): 1.16 (0.06)
  Fold difference NO/ONOO− (mean ± sd): 1.48 (0.18)
  Fold difference ONOO− (mean ± sd): 0.79 (0.07)
[17]
  Fold difference NO (mean ± sd): 1.13 (0.06)
  Fold difference NO/ONOO− (mean ± sd): 1.39 (0.13)
  Fold difference ONOO− (mean ± sd): 0.82 (0.07)
[18]
  Fold difference NO (mean ± sd): 1.13 (0.06)
  Fold difference NO/ONOO− (mean ± sd): 1.39 (0.13)
  Fold difference ONOO− (mean ± sd): 0.82 (0.06)
[19]
  Fold difference NO (mean ± sd): 1.12 (0.07)
  Fold difference NO/ONOO− (mean ± sd): 1.39 (0.13)
  Fold difference ONOO− (mean ± sd): 0.81 (0.08)
[20]
  Fold difference NO (mean ± sd): 1.17 (0)
  Fold difference NO/ONOO− (mean ± sd): 1.39 (0)
  Fold difference ONOO− (mean ± sd): 0.85 (0)
[21]
  Fold difference NO (mean ± sd): 1.14 (0.04)
  Fold difference NO/ONOO− (mean ± sd): 1.37 (0.04)
  Fold difference ONOO− (mean ± sd): 0.83 (0.03)
[22]
  Fold difference NO (mean ± sd): 1.16 (0.06)
  Fold difference NO/ONOO− (mean ± sd): 1.44 (0.13)
  Fold difference ONOO− (mean ± sd): 0.81 (0.05)
[23]
  Fold difference NO (mean ± sd): 1.17 (0.07)
  Fold difference NO/ONOO− (mean ± sd): 1.46 (0.14)
  Fold difference ONOO− (mean ± sd): 0.80 (0.06)
[24]
  Fold difference NO (mean ± sd): 1.14 (0.07)
  Fold difference NO/ONOO− (mean ± sd): 1.43 (0.17)
  Fold difference ONOO− (mean ± sd): 0.81 (0.07)
[25]
  Fold difference NO (mean ± sd): 1.14 (0.07)
  Fold difference NO/ONOO− (mean ± sd): 1.42 (0.18)
  Fold difference ONOO− (mean ± sd): 0.81 (0.08)
[26]
  Fold difference NO (mean ± sd): 1.17 (0)
  Fold difference NO/ONOO− (mean ± sd): 1.53 (0)
  Fold difference ONOO− (mean ± sd): 0.77 (0)
[27]
  Fold difference NO (mean ± sd): 1.08 (0)
  Fold difference NO/ONOO− (mean ± sd): 1.59 (0)
  Fold difference ONOO− (mean ± sd): 0.67 (0)
